Source: the supplement of paper PMC8960247
Where a name gives a salt, the structure may show the parent alone. ± gives the standard error.

Tests used:
621-103 (TSC2-rescued) = assay: relative viability vs DMSO; higher = less cytotoxic; settings: serum: 10% FBS, 72 h
621-102 (TSC2-deficient) = assay: as above; settings: serum: 10% FBS, 72 h
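Also: immortalized renal angiomyolipoma cells stably carrying empty vector or TSC2, dosed in 384-well plates in DMEM, viability normalized to vehicle-treated wells within each plate.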

| SMILES | relative viability (621-103 (TSC2-rescued); 0.0001 µM) | relative viability (621-103 (TSC2-rescued); 0.001 µM) | relative viability (621-103 (TSC2-rescued); 0.01 µM) | relative viability (621-103 (TSC2-rescued); 0.1 µM) | relative viability (621-103 (TSC2-rescued); 1 µM) | relative viability (621-103 (TSC2-rescued); 10 µM) | relative viability (621-102 (TSC2-deficient); 0.0001 µM) | relative viability (621-102 (TSC2-deficient); 0.001 µM) | relative viability (621-102 (TSC2-deficient); 0.01 µM) | relative viability (621-102 (TSC2-deficient); 0.1 µM) | relative viability (621-102 (TSC2-deficient); 1 µM) | relative viability (621-102 (TSC2-deficient); 10 µM) |
| --- | --- | --- | --- | --- | --- | --- | --- | --- | --- | --- | --- | --- |
| CC[C@@]1(O)C(=O)OCc2c1cc1n(c2=O)Cc2cc3ccccc3nc2-1 [Camptothecine] | 100.6 ± 0.37% | 100.7 ± 0.47% | 96.3 ± 4.5% | 44.6 ± 2.1% | 10.3 ± 0.36% | 17.79 ± 0.099% | 104.3 ± 0.41% | 106 ± 1.9% | 101 ± 2.4% | 57.8 ± 2.9% | 12 ± 0.68% | 19.5 ± 1.7% |
| CCOc1nc2cccc(C(=O)OC(C)OC(=O)OC3CCCCC3)c2n1Cc1ccc(-c2ccccc2-c2nn[nH]n2)cc1 (stereo unspecified) [Candesartan cilexetil] | 96.526 ± 0.053% | 95.8 ± 3.5% | 94.03 ± 0.16% | 97.8 ± 1.6% | 99.8 ± 5.4% | 94.55 ± 0.33% | 106.1 ± 0.3% | 97.7 ± 2.1% | 102 ± 2.7% | 106 ± 1.2% | 96.9 ± 2.4% | 97.55 ± 0.87% |
| CCCCCOC(=O)Nc1nc(=O)n([C@@H]2O[C@H](C)[C@@H](O)[C@H]2O)cc1F [Capecitabine (Xeloda)] | 103 ± 1.9% | 99.6 ± 1.4% | 101.3 ± 0.12% | 99.27 ± 0.86% | 99.79 ± 0.64% | 100 ± 1.3% | 108.6 ± 0.75% | 112.3 ± 1.1% | 110 ± 2.9% | 106 ± 1.7% | 110.4 ± 0.14% | 100.35 ± 0.077% |
| NC(=O)N1c2ccccc2C=Cc2ccccc21 [Carbamazepine (Carbatrol)] | 101.9 ± 0.54% | 105.8 ± 0.3% | 103 ± 1.8% | 107.7 ± 0.39% | 105 ± 0.35% | 98.871 ± 0.053% | 93.1 ± 3.9% | 96.7 ± 3.8% | 93.3 ± 3% | 101.1 ± 0.14% | 108.4 ± 0.97% | 94.54 ± 0.19% |
| C[C@@](Cc1ccc(O)c(O)c1)(NN)C(=O)O [Carbidopa] | 92 ± 1.9% | 103.2 ± 0.12% | 93.7 ± 2.5% | 107 ± 2.1% | 104 ± 4.8% | 92.1 ± 1.4% | 97.3 ± 3.2% | 104 ± 5.4% | 90.03 ± 0.71% | 103 ± 1.6% | 99.6 ± 2.6% | 89.7 ± 1.3% |
| COc1cc2c(Oc3ccc4[nH]c(C)cc4c3F)ncnc2cc1OCCCN1CCCC1 [Cediranib (AZD2171)] | 81.9 ± 2.5% | 89.4 ± 1.5% | 102 ± 1.9% | 97.36 ± 0.37% | 62.3 ± 2.6% | 1.75 ± 0.065% | 104 ± 3.6% | 117 ± 2.7% | 121 ± 5.1% | 102 ± 2.1% | 84.2 ± 1.6% | 10.6 ± 4.9% |
| CO/N=C(\C(=O)N[C@@H]1C(=O)N2C(C(=O)O)=C(CSC(=O)c3ccco3)CS[C@H]12)c1csc(N)n1 [Ceftiofur HCl] | 98.6 ± 4.3% | 99.23 ± 0.84% | 94.4 ± 3% | 97.5 ± 5.2% | 94.3 ± 1.6% | 94.2 ± 3.3% | 116 ± 6.8% | 112.1 ± 0.33% | 123 ± 2% | 117 ± 5.6% | 116 ± 2% | 110 ± 1.9% |
| CN(C)CCCN1c2ccccc2Sc2ccc(Cl)cc21 [Chlorpromazine HCl] | 97.7 ± 3.2% | 92.6 ± 5.6% | 95.67 ± 0.89% | 102 ± 6.1% | 91.8 ± 4.6% | 63.7 ± 4.6% | 88.27 ± 0.79% | 87.9 ± 6.9% | 93.3 ± 8.6% | 101 ± 8.9% | 101 ± 7.6% | 81.9 ± 3.2% |
| CN(C)CC/C=C1/c2ccccc2Sc2ccc(Cl)cc21 [Chlorprothixene] | 103 ± 2.4% | 106 ± 5.4% | 102.3 ± 0.14% | 108 ± 2.9% | 108.9 ± 0.97% | 89.1 ± 2% | 93.1 ± 1.6% | 102 ± 5.2% | 102 ± 4.3% | 102.9 ± 0.47% | 108 ± 4% | 100.8 ± 0.6% |
| COCCOC(=O)C1=C(C)NC(C)=C(C(=O)OC/C=C/c2ccccc2)C1c1cccc([N+](=O)[O-])c1 (stereo unspecified) [Cilnidipine] | 98.6 ± 2.3% | 104 ± 3.4% | 105.9 ± 0.78% | 113 ± 2.5% | 100 ± 1.8% | 104 ± 3.1% | 118 ± 4% | 100.5 ± 0.18% | 102.6 ± 0.79% | 95.6 ± 1.2% | 99.98 ± 0.81% | 98 ± 2.2% |
| O=C1CCc2cc(OCCCCc3nnnn3C3CCCCC3)ccc2N1 [Cilostazol] | 107.6 ± 0.22% | 100.9 ± 0.71% | 108 ± 1.6% | 104.6 ± 1% | 101 ± 3.3% | 97.51 ± 0.021% | 109 ± 1.2% | 102 ± 0.67% | 107.6 ± 0.99% | 109 ± 3% | 96.51 ± 0.85% | 101 ± 2.5% |
| CC(C)(Oc1ccc(C2CC2(Cl)Cl)cc1)C(=O)O (stereo unspecified) [Ciprofibrate] | 107 ± 2.5% | 102 ± 3.9% | 98.7 ± 5% | 109.4 ± 0.22% | 103.1 ± 0.95% | 102 ± 1.3% | 105.1 ± 0.47% | 100 ± 4.4% | 103.6 ± 0.33% | 93.48 ± 0.86% | 97 ± 5.4% | 102 ± 1.7% |
| Nc1nc(Cl)nc2c1ncn2[C@H]1C[C@H](O)[C@@H](CO)O1 [Cladribine] | 101 ± 1.4% | 101 ± 2.1% | 105 ± 2.1% | 105 ± 2.4% | 60.3 ± 0.92% | 43.5 ± 0.46% | 106.2 ± 0.9% | 110 ± 1.8% | 113 ± 2.1% | 106.4 ± 0.98% | 97.8 ± 3.5% | 52.73 ± 0.19% |
| CC[C@H]1OC(=O)[C@H](C)[C@@H](O[C@H]2C[C@@](C)(OC)[C@@H](O)[C@H](C)O2)[C@H](C)[C@@H](O[C@@H]2O[C@H](C)C[C@H](N(C)C)[C@H]2O)[C@](C)(OC)C[C@@H](C)C(=O)[C@H](C)[C@@H](O)[C@]1(C)O [Clarithromycin (Biaxin,Klacid)] | 106 ± 2% | 91.4 ± 2.9% | 104 ± 1.4% | 102 ± 1.1% | 102 ± 3.7% | 93.43 ± 0.4% | 118 ± 2% | 113 ± 2.8% | 108 ± 0.65% | 115 ± 2.5% | 105 ± 0.45% | 98.8 ± 1.5% |
| CCC(C)(Oc1ccc(C2(c3ccc(OC(C)(CC)C(=O)O)cc3)CCCCC2)cc1)C(=O)O (stereo unspecified) [Clinofibrate] | 102.4 ± 0.13% | 93 ± 7.7% | 94.9 ± 0.43% | 105 ± 1.8% | 105 ± 3.6% | 91.3 ± 2.9% | 99.8 ± 0.13% | 107 ± 1.1% | 99.1 ± 2.4% | 99.1 ± 1.4% | 94.4 ± 4.2% | 107 ± 2.1% |
| CCN(CC)CCOc1ccc(C(=C(Cl)c2ccccc2)c2ccccc2)cc1 [Clomifene citrate (Serophene)] | 102 ± 3.5% | 99.3 ± 1.9% | 97.2 ± 5.9% | 96.14 ± 0.13% | 101 ± 4.7% | 14 ± 0.71% | 108 ± 1.1% | 105 ± 6% | 104 ± 3.9% | 102 ± 2.1% | 105 ± 1.7% | 58.6 ± 10% |
| CN(C)CCCN1c2ccccc2CCc2ccc(Cl)cc21 [Clomipramine HCl] | 100 ± 4.4% | 102 ± 1.1% | 102 ± 3.2% | 108 ± 3% | 93.4 ± 5.5% | 75.7 ± 1.8% | 114 ± 2.6% | 109 ± 1.4% | 111 ± 2.2% | 111 ± 4% | 109.6 ± 0.49% | 85.7 ± 0.93% |
| Clc1cccc(Cl)c1NC1=NCCN1 [Clonidine HCl (Catapres)] | 96.4 ± 1.4% | 92.5 ± 0.96% | 93.1 ± 9.7% | 110 ± 0.19% | 113 ± 5.1% | 108 ± 1.1% | 111 ± 5% | 110 ± 5.9% | 101 ± 1.1% | 104 ± 3.7% | 102.3 ± 0.16% | 104 ± 1.4% |
